Data on 14 compounds can be found in patent US20230003721A1, “MITOTHERAPEUTICS FOR THE TREATMENT OF BRAIN DISORDERS” (The University of Florida Research Foundation, Inc., priority 2019, published 2023).

Counter-ions that a name gives are not always drawn.

One assay concerns primary neurons. Description: TMRM fluorescence assay of inner mitochondrial membrane potential (ΔΨm). The settings on record: 12.5 μM, 4 h. The procedure:
Mitochondrial dyes. To assay the electrochemical potential across the inner mitochondrial membrane of cultured cells, we used the cell-permeant dye tetramethylrhodamine methyl ester (TMRM). For co-localization studies with Mt-GFP, TMRM was used at 20 nM on DIV14 and incubated for 30 min prior to imaging. For the orthogonal screen of compounds, TMRM was added to primary neurons on DIV13 at 10 nM, one hr prior to pintooling selected compounds, and incubated for 24 hr. Cells were washed 2× with pre-warmed fresh feeding media without B27 before measurements with a plate reader.
(§1) A CLARIOstar (BMG LABTECH) microplate reader was used to measure fluorescence of TMRM and luminescence produced from the ATP.
(§2) Mitochondrial membrane potential (Δψm) and luminescence-based ATP assays. […] Changes of ΔΨm in each well were monitored using the mitochondrial-specific, fluorescent dye TMRM (tetramethyl rhodamine, methyl ester; Molecular Probes) and measured using a CLARIOstar plate reader. […] This concentration was used throughout our experiments. […] Wells in columns 1 and 24 were not loaded with TMRM; these served to measure background signal which was subtracted from the wells to which TMRM was added. To measure the total ATP levels in neurons we utilized the CellTiter-Glo® luminescence-based ATP assay (Promega). DIV13 primary neurons were cultured for 24 h with either DMSO carrier or compound treatment, followed by removing 55 μl culture medium from each well. Plates were maintained at room temperature for 25 m, and 25 μl of CellTiter-Glo® Reagent with the substrate luciferin was then added to each well (Promega). Plates were covered with aluminum foil and shaken vigorously on an orbital shaker for 10 m at 200 rpm and maintained at room temperature for an additional 2 m in dark before being read with the plate reader set to the luminescence mode.
Compound library and hit picking rules. We screened 2400 compounds from the MicroSource Spectrum library. […] FIGS. 13A-13E provide details of the assays used from which hit picking rules were made. In essence, the average fluorescence for each compound in the TMRM assay was determined and compared to the average fluorescence for compounds in the population on each assay plate to produce a Z-score. The Z-scores for each individual compound assayed across the four replicate plates was then averaged.
Take `CC(=O)OCC(=O)[C@H]1CC[C@H]2[C@@H]3CCC4=CC(=O)CC[C@]4(C)[C@H]3CC[C@]12C` [desoxycorticosterone acetate]: the “hit in TMRM primary screen when assayed at 4 h” value (from here on “hit in TMRM primary screen”) was “desoxycorticosterone acetate*”.

`C=CCc1ccc(O)c(OC)c1` [eugenol]: the “hit in TMRM primary screen” value was “eugenol*”.

Turning to `O=C([O-])Cc1c[nH]cn1.[Na+]` [imidazol-4-ylacetic acid sodium salt], the “hit in TMRM primary screen” value is “imidazol-4-ylacetic acid sodium salt*”.

Staying with this assay, now noted: Mus musculus, Primary neuron, read-out: TMRM (Effect-size).
`C[N+]12CCC(CC1)C(OC(=O)C(O)(c1ccccc1)c1ccccc1)C2` (centres unmarked) [clidinium bromide]: the Emax stood at 14.3%.

`O=C(c1ccc(F)cc1)C1CCN(CCn2c(=O)[nH]c3ccccc3c2=O)CC1` [ketanserin tartrate]: the Emax was 30%.

Staying with this assay, now noted: Mus musculus, Primary neuron, read-out: TMRM-EC50.
With `C[N+]12CCC(CC1)C(OC(=O)C(O)(c1ccccc1)c1ccccc1)C2` (centres unmarked) [clidinium bromide], the EC50 was 450 nM.

As for `O=C(c1ccc(F)cc1)C1CCN(CCn2c(=O)[nH]c3ccccc3c2=O)CC1` [ketanserin tartrate], the EC50 stood at 1300 nM.

The assay is the same for the next values; noted with them: primary screen, 12.5 μM, 24 h.
As to `C[N+]12CCC(CC1)C(OC(=O)C(O)(c1ccccc1)c1ccccc1)C2` (centres unmarked) [clidinium bromide], the “TMRM Primary” value was found to be 2.49 Z-scores.

As for `CCN(CC)CCOc1ccc(C(=C(Cl)c2ccccc2)c2ccccc2)cc1` [clomiphene citrate], the “TMRM Primary” value came out at 2.94 Z-scores.

Take `CN1CCN(C2=Nc3cc(Cl)ccc3Nc3ccccc32)CC1` [clozapine]: the “TMRM Primary” value is reported as 3.24 Z-scores.

Regarding `CN(C)CCC=C1c2ccccc2C=Cc2ccccc21` [cyclobenzaprine hydrochloride], the “TMRM Primary” value worked out at 5.52 Z-scores.

`CC1=C2C[C@H]3[C@@H](CC=C4C[C@@H](O)CC[C@@]43C)[C@@H]2CC[C@]12O[C@@H]1C[C@H](C)CN[C@H]1[C@H]2C` [cyclopamine]: the “TMRM Primary” value worked out at 3.74 Z-scores.

`CC(C)c1ccc2c(c1)CC[C@H]1[C@](C)(C(N)=O)CCC[C@]21C` [dehydroabietamide]: the “TMRM Primary” value came to 3.42 Z-scores.

Turning to `CC(=O)OCC(=O)[C@H]1CC[C@H]2[C@@H]3CCC4=CC(=O)CC[C@]4(C)[C@H]3CC[C@]12C` [desoxycorticosterone acetate], the “TMRM Primary” value turned out to be 2.81 Z-scores.

With `CC(C)NC[C@@H](O)COc1cccc2ccccc12.Cl` [dexpropranolol hydrochloride [R(+)]], the “TMRM Primary” value came out at 4.37 Z-scores.

Turning to `CCCCOc1cc(C(=O)NCCN(CC)CC)c2ccccc2n1` [dibucaine hydrochloride], the “TMRM Primary” value came out at 3.83 Z-scores.

Take `CN(C)CCOC(c1ccccc1)c1ccccc1.Cn1c(=O)c2[nH]c(Cl)nc2n(C)c1=O` [dimenhydrinate]: the “TMRM Primary” value came out at 3.98 Z-scores.

`O=C(Nc1ccccc1)OCC(CN1CCCCC1)OC(=O)Nc1ccccc1` (centres unmarked) [diperodon hydrochloride]: the “TMRM Primary” value came to 3.75 Z-scores.

Take `C=CCc1ccc(O)c(OC)c1` [eugenol]: the “TMRM Primary” value turned out to be 4.17 Z-scores.

As for `O=C([O-])Cc1c[nH]cn1.[Na+]` [imidazol-4-ylacetic acid sodium salt], the “TMRM Primary” value amounted to 3.58 Z-scores.

Take `O=C(c1ccc(F)cc1)C1CCN(CCn2c(=O)[nH]c3ccccc3c2=O)CC1` [ketanserin tartrate]: the “TMRM Primary” value turned out to be 5.62 Z-scores.

The same assay, now with this note: rescreen, 24 h.
Regarding `C[N+]12CCC(CC1)C(OC(=O)C(O)(c1ccccc1)c1ccccc1)C2` (centres unmarked) [clidinium bromide], the “TMRM Rescreen” value came to 4.11 Z-scores.

For the compound `CCN(CC)CCOc1ccc(C(=C(Cl)c2ccccc2)c2ccccc2)cc1` [clomiphene citrate], the “TMRM Rescreen” value was 3.45 Z-scores.

`CN1CCN(C2=Nc3cc(Cl)ccc3Nc3ccccc32)CC1` [clozapine]: the “TMRM Rescreen” value was 5.80 Z-scores.

On to `CN(C)CCC=C1c2ccccc2C=Cc2ccccc21` [cyclobenzaprine hydrochloride], for which the “TMRM Rescreen” value worked out at 4.71 Z-scores.

With `CC1=C2C[C@H]3[C@@H](CC=C4C[C@@H](O)CC[C@@]43C)[C@@H]2CC[C@]12O[C@@H]1C[C@H](C)CN[C@H]1[C@H]2C` [cyclopamine], the “TMRM Rescreen” value is given as 8.14 Z-scores.

In the case of `CC(C)c1ccc2c(c1)CC[C@H]1[C@](C)(C(N)=O)CCC[C@]21C` [dehydroabietamide], the “TMRM Rescreen” value is reported as 5.12 Z-scores.

For the compound `CC(=O)OCC(=O)[C@H]1CC[C@H]2[C@@H]3CCC4=CC(=O)CC[C@]4(C)[C@H]3CC[C@]12C` [desoxycorticosterone acetate], the “TMRM Rescreen” value came to 1.08 Z-scores.

For `CC(C)NC[C@@H](O)COc1cccc2ccccc12.Cl` [dexpropranolol hydrochloride [R(+)]], the “TMRM Rescreen” value is on record as 4.79 Z-scores.

Turning to `CCCCOc1cc(C(=O)NCCN(CC)CC)c2ccccc2n1` [dibucaine hydrochloride], the “TMRM Rescreen” value amounted to 6.82 Z-scores.

With `CN(C)CCOC(c1ccccc1)c1ccccc1.Cn1c(=O)c2[nH]c(Cl)nc2n(C)c1=O` [dimenhydrinate], the “TMRM Rescreen” value worked out at 4.31 Z-scores.

Consider `O=C(Nc1ccccc1)OCC(CN1CCCCC1)OC(=O)Nc1ccccc1` (centres unmarked) [diperodon hydrochloride], for which the “TMRM Rescreen” value was found to be 6.07 Z-scores.

Consider `C=CCc1ccc(O)c(OC)c1` [eugenol], for which the “TMRM Rescreen” value turned out to be 3.10 Z-scores.

On to `O=C([O-])Cc1c[nH]cn1.[Na+]` [imidazol-4-ylacetic acid sodium salt], for which the “TMRM Rescreen” value turned out to be 4.56 Z-scores.

For `O=C(c1ccc(F)cc1)C1CCN(CCn2c(=O)[nH]c3ccccc3c2=O)CC1` [ketanserin tartrate], the “TMRM Rescreen” value was 5.26 Z-scores.

For a further assay, the system named is primary neurons. The assay can be described thus: CellTiter-Glo luminescence-based ATP assay. In kind it is cell-based, mouse. The settings on record: ATP orthogonal screen, 24 h. The protocol:
Measurement of ATP production. The total amount of ATP produced by cultured primary neurons was measured by CellTiter-Glo Luminescent Cell Viability Assay (Promega). A recombinant luciferase enzyme catalyzed the mono-oxygenation of luciferin while hydrolyzing ATP produced by the cells and emitting light. We followed the manufacturer's protocol with primary neurons on DIV14.
as §1, §2
Compound library and hit picking rules. We screened 2400 compounds from the MicroSource Spectrum library. […] FIGS. 13A-13E provide details of the assays used from which hit picking rules were made. In essence, the average fluorescence for each compound in the TMRM assay was determined and compared to the average fluorescence for compounds in the population on each assay plate to produce a Z-score. The Z-scores for each individual compound assayed across the four replicate plates was then averaged. Because of significant well location effects (outer rows) on each assay plate (FIG. 13G), we selected primary hits as enhancing well fluorescence above the μplate by 3σplate for inner row wells (rows C-N, columns 3-22), and by 2.5σplate for outer row wells (rows A, B, O, P; columns 3-22) (FIG. 14C-D). […] All orthogonal assays employed inner wells of the 384-well plates.
In turn, `C[N+]12CCC(CC1)C(OC(=O)C(O)(c1ccccc1)c1ccccc1)C2` (centres unmarked) [clidinium bromide] showed an ATP of 6.21 Z-scores.

`CCN(CC)CCOc1ccc(C(=C(Cl)c2ccccc2)c2ccccc2)cc1` [clomiphene citrate] gave an ATP of 4.20 Z-scores.

For the compound `CN1CCN(C2=Nc3cc(Cl)ccc3Nc3ccccc32)CC1` [clozapine], the ATP amounted to 3.88 Z-scores.

`CN(C)CCC=C1c2ccccc2C=Cc2ccccc21` [cyclobenzaprine hydrochloride]: the ATP is listed as 3.49 Z-scores.

`CC1=C2C[C@H]3[C@@H](CC=C4C[C@@H](O)CC[C@@]43C)[C@@H]2CC[C@]12O[C@@H]1C[C@H](C)CN[C@H]1[C@H]2C` [cyclopamine] yielded an ATP of 5.15 Z-scores.

For `CC(C)c1ccc2c(c1)CC[C@H]1[C@](C)(C(N)=O)CCC[C@]21C` [dehydroabietamide], the ATP is 4.15 Z-scores.

Turning to `CC(=O)OCC(=O)[C@H]1CC[C@H]2[C@@H]3CCC4=CC(=O)CC[C@]4(C)[C@H]3CC[C@]12C` [desoxycorticosterone acetate], the ATP was 3.62 Z-scores.

As for `CC(C)NC[C@@H](O)COc1cccc2ccccc12.Cl` [dexpropranolol hydrochloride [R(+)]], the ATP is given as 6.22 Z-scores.

`CCCCOc1cc(C(=O)NCCN(CC)CC)c2ccccc2n1` [dibucaine hydrochloride] showed an ATP of 6.22 Z-scores.

As for `CN(C)CCOC(c1ccccc1)c1ccccc1.Cn1c(=O)c2[nH]c(Cl)nc2n(C)c1=O` [dimenhydrinate], the ATP was 4.94 Z-scores.

The compound `O=C(Nc1ccccc1)OCC(CN1CCCCC1)OC(=O)Nc1ccccc1` (centres unmarked) [diperodon hydrochloride] yielded an ATP of 8.02 Z-scores.

The compound `C=CCc1ccc(O)c(OC)c1` [eugenol] returned an ATP of 4.39 Z-scores.

As to `O=C([O-])Cc1c[nH]cn1.[Na+]` [imidazol-4-ylacetic acid sodium salt], the ATP turned out to be 4.61 Z-scores.

Turning to `O=C(c1ccc(F)cc1)C1CCN(CCn2c(=O)[nH]c3ccccc3c2=O)CC1` [ketanserin tartrate], the ATP is 5.68 Z-scores.

The same assay, now with this note: Mus musculus, Primary neuron; dose response, 15 concentrations from 6 nM to 100 uM.
With `C[N+]12CCC(CC1)C(OC(=O)C(O)(c1ccccc1)c1ccccc1)C2` (centres unmarked) [clidinium bromide], the EC50 was determined as 420 nM.

The compound `O=C(c1ccc(F)cc1)C1CCN(CCn2c(=O)[nH]c3ccccc3c2=O)CC1` [ketanserin tartrate] showed an EC50 of 160 nM.

The same assay, now with this note: Mus musculus, Primary neuron; maximal percent increase relative to in-plate DMSO controls, dose response; read-out: ATP (Effect-size).
As to `C[N+]12CCC(CC1)C(OC(=O)C(O)(c1ccccc1)c1ccccc1)C2` (centres unmarked) [clidinium bromide], the Emax worked out at 20.5%.

`O=C(c1ccc(F)cc1)C1CCN(CCn2c(=O)[nH]c3ccccc3c2=O)CC1` [ketanserin tartrate]: the Emax was determined as 19.1%.
